Experimental data as given in article PMC7559477, “Zinc Binding by Histatin 5 Promotes Fungicidal Membrane Disruption in C. albicans and C. glabrata” (Journal of Fungi, 2020).
Where no end group is shown, it is not given here.

Assay: Zinc-binding competition assay with Zincon
Settings: competition with Zincon 1:1, 20 µM peptide, 10 mM NaPB pH 7.4, ZnSO4 titration, absorbance at 621 nm; triplicate, averaged
Method: Binding competition assays were carried out utilizing the colorimetric copper and Zn^2+ binding dye Zincon. Peptides (20 µM) were mixed with Zincon at a 1:1 ratio and titrated with increasing equivalents of ZnSO4. Absorbance at 621 nm was measured at each addition of metal salt using a Lambda 25 UV/Vis spectrophotometer (Perkin Elmer, Waltham, MA, USA). Data were curve fit using a one site competition equation.
Figure 2 The three Hsts are all soluble at a physiological ratio of Zn^2+ to peptide but differ in relative Zn^2+ affinity. (A) Percent solubility of 15 µM Hst 5 (red), Hst 5ΔMB (blue), and P113 (green) in 10 mM sodium phosphate buffer pH 7.4 with increasing ratio of Zn^2+ incubated at room temperature for 30 min. Peptide solubility was measured via NanoDrop A205 after removal of insoluble aggregates by centrifugation. (B) Binding competition assay with Zincon and peptides at 20 µM in 10 mM sodium phosphate buffer pH 7.4 to establish relative affinity of Hst 5 (red), Hst 5ΔMB (blue), and P113 (green) for Zn^2+ at increasing molar ratios. Absorbance of Zincon at 621 nm was measured as an inverse indicator of relative peptide affinity, as Zincon has a blue color when bound to zinc. Experiments were performed in triplicate and averaged.

With QQQAKRHHGYKRKFQQQQQSHRGY [Hst 5ΔMB] the “relative affinity for Zn2+” value was “lowest affinity”.
